Strand notation (5' to 3'): a small letter for the sugar, then the base; units joined by * are phosphorothioate-linked, units joined directly phosphodiester-linked; [ ] holds rarer units or linkages, { } end groups; capitals alone tell only the bases. e = 2'-O-(2-methoxyethyl) (MOE); [5mC] = 5-methylcytosine; d = 2'-deoxy (DNA)
System: human PKK mRNA
Assay: Antisense inhibition of human PKK mRNA in HepaRG cells, 5,000 nM (Example 2)
Assay type: cell-based
Conditions: HepaRG cells, 5,000 nM antisense oligonucleotide; 5-10-5 gapmers; Table 16
Procedure: Additional antisense oligonucleotides were designed targeting a PKK nucleic acid and were tested for their effects on PKK mRNA in vitro.
The chimeric antisense oligonucleotides in the tables below were designed as 5-10-5 MOE gapmers, 4-9-4 MOE gapmers, 4-10-4 MOE gapmers, 4-10-3 MOE gapmers, 3-10-4 MOE gapmers, or 3-10-3 MOE gapmers. The 5-10-5 MOE gapmers are 20 nucleosides in length, wherein the central gap segment comprises of ten 2′-deoxynucleosides and is flanked by wing segments on the 5′ direction and the 3′ direction comprising five nucleosides each. The 4-9-4 MOE gapmers are 17 nucleosides in length, wherein the central gap segment comprises of nine 2′-deoxynucleosides and is flanked by wing segments on the 5′ direction and the 3′ direction comprising four nucleosides each. The 4-10-4 MOE gapmers are 18 nucleosides in length, wherein the central gap segment comprises of ten 2′-deoxynucleosides and is flanked by wing segments on the 5′ direction and the 3′ direction comprising four nucleosides each. The 4-10-3 MOE gapmers are 17 nucleosides in length, wherein the central gap segment comprises of ten 2′-deoxynucleosides and is flanked by wing segments on the 5′ direction and the 3′ direction comprising four and three nucleosides respectively. The 3-10-4 MOE gapmers are 17 nucleosides in length, wherein the central gap segment comprises often 2′-deoxynucleosides and is flanked by wing segments on the 5′ direction and the 3′ direction comprising three and four nucleosides respectively. The 3-10-3 MOE gapmers are 16 nucleosides in length, wherein the central gap segment comprises of ten 2′-deoxynucleosides and is flanked by wing segments on the 5′ direction and the 3′ direction comprising three nucleosides each. Each nucleoside in the 5′ wing segment and each nucleoside in the 3′ wing segment has a 2′-O-methoxyethyl modification. The internucleoside linkages throughout each gapmer are phosphorothioate linkages. All cytosine residues throughout each gapmer are 5-methylcytosines. “Start site” indicates the 5′-most nucleoside to which the gapmer is targeted in the human gene sequence. “Stop site” indicates the 3′-most nucleoside to which the gapmer is targeted in the human gene sequence.
Cultured HepaRG™ cells at a density of 20,000 cells per well were transfected using electroporation with 5,000 nM antisense oligonucleotide. After a treatment period of approximately 24 hours, RNA was isolated from the cells and PKK mRNA levels were measured by quantitative real-time PCR. Human primer probe set RTS3454 was used to measure mRNA levels. PKK mRNA levels were adjusted according to total RNA content, as measured by RIBOGREEN®. The antisense oligonucleotides were tested in a series of experiments that had similar culture conditions. Results are presented as percent inhibition of PKK, relative to untreated control cells.

In order of falling “% inhibition” value:
1. 546983 (eG*eA*eT*eG*eA*d[5mC]*d[5mC]*dT*dG*d[5mC]*dA*dG*dA*dT*dG*e[5mC]*eA*e[5mC]*eA*eG; antisense) [compound 546983]  74%
2. 546944 (eG*e[5mC]*e[5mC]*eA*e[5mC]*dT*dA*dA*d[5mC]*d[5mC]*d[5mC]*dA*d[5mC]*d[5mC]*dT*e[5mC]*eT*eT*eA*eA; antisense) [compound 546944]  42%
3. 547700 (antisense eG*eT*eA*e[5mC]*e[5mC]*dT*dA*dT*dA*dA*d[5mC]*dT*dA*dT*dA*eA*e[5mC]*eA*eA*eT) [compound 547700]  0%

Same assay, conditions: HepaRG cells, 5,000 nM antisense oligonucleotide; 5-10-5 gapmers; Table 17

In order of rising “% inhibition” value:
1. 547059 (eG*eG*eG*eT*eA*dT*d[5mC]*dT*dT*d[5mC]*dA*d[5mC]*dT*dG*dT*eT*e[5mC]*e[5mC]*eA*eG; antisense) [compound 547059]  12%
2. 547069 (eG*e[5mC]*e[5mC]*e[5mC]*eT*d[5mC]*d[5mC]*dG*dA*dG*d[5mC]*dT*dT*dT*dG*eG*e[5mC]*eA*eA*e[5mC]; antisense) [compound 547069]  35%
3. 547735 (eG*eG*eT*eA*eG*dG*dA*dT*dT*dG*dG*dT*dG*dG*dT*eG*eG*eG*eA*eT; antisense) [compound 547735]  39%
4. 547723 (eT*eA*eG*eA*eA*dT*dG*dG*d[5mC]*dA*dG*dG*dG*dT*dT*e[5mC]*eT*eG*eT*eG; antisense) [compound 547723]  53%
5. 547008 (eT*eT*eG*eG*eT*dG*dG*dT*dG*dG*dG*dA*dT*dT*dG*eG*eT*eG*eG*eT; antisense) [compound 547008]  81%

Same assay, conditions: HepaRG cells, electroporation with 5,000 nM antisense oligonucleotide, approximately 24 hours, PKK mRNA by RT-PCR (RTS3454), relative to untreated control cells; Table 6 experiment

In order of falling “% inhibition” value:
1. 546181 (antisense eT*eG*eA*e[5mC]*e[5mC]*dA*d[5mC]*dA*dT*dT*dG*d[5mC]*dT*dT*d[5mC]*eA*eA*eG*eG*eA) [compound 546181]  75%
2. 547326 (antisense eA*eT*eG*eA*e[5mC]*d[5mC]*dA*d[5mC]*dA*dT*dT*dG*d[5mC]*dT*dT*e[5mC]*eA*eA*eG*eG) [compound 547326]  48%

Same assay, conditions: HepaRG cells, electroporation, 5,000 nM antisense oligonucleotide, approx. 24 hours, primer probe set RTS3454, relative to untreated control cells; Table 11

In order of rising “% inhibition” value:
1. 546373 (antisense e[5mC]*eT*e[5mC]*eA*eG*dA*dA*dT*dT*dT*dG*dA*d[5mC]*dT*dT*eG*eA*eA*e[5mC]*eT) [compound 546373]  59%
2. 546365 (antisense eA*eG*eA*e[5mC]*eT*d[5mC]*dT*dG*dG*dA*d[5mC]*dT*dG*d[5mC]*dT*eT*e[5mC]*eT*e[5mC]*eA) [compound 546365]  64%
3. 546394 (eG*eT*e[5mC]*eA*eT*dG*dG*dA*dG*dA*dT*d[5mC]*dT*d[5mC]*dA*eG*eT*eT*eG*e[5mC]; antisense) [compound 546394]  71%
4. 547519 (antisense e[5mC]*e[5mC]*eA*eG*eA*d[5mC]*dA*dT*dT*dG*dT*d[5mC]*d[5mC]*dT*d[5mC]*eA*eG*e[5mC]*eA*eG) [compound 547519]  76%

Same assay, conditions: HepaRG cells, electroporation, 5,000 nM antisense oligonucleotide, approx. 24 hours, primer probe set RTS3454, relative to untreated control cells; Table 12

“546459 (eG*eT*eA*eG*e[5mC]*d[5mC]*dA*dT*dA*d[5mC]*dA*dT*d[5mC]*dT*dG*eA*eG*eG*eA*eA; antisense) [compound 546459]” was tested, and the “% inhibition” value was 46%.

Same assay, conditions: Table 7; HepaRG cells, electroporation with 5,000 nM antisense oligonucleotide, approx. 24 hours; PKK mRNA by RT-PCR (RTS3454), relative to untreated control cells

In order of rising “% inhibition” value:
1. 547398 (e[5mC]*eA*eG*eG*eG*dT*dT*d[5mC]*dA*dG*dG*dT*dA*dA*dA*eG*eT*eT*e[5mC]*eT; antisense) [compound 547398]  16%
2. 547372 (eG*eA*eT*eG*eG*dT*d[5mC]*d[5mC]*dG*dA*d[5mC]*dA*d[5mC]*dA*d[5mC]*eA*eA*eA*eA*eG; antisense) [compound 547372]  32%
3. 547402 (eT*eT*eT*eA*eG*dA*dA*dT*dG*dG*d[5mC]*dA*dG*dG*dG*eT*eT*e[5mC]*eA*eG; antisense) [compound 547402]  59%
4. 547404 (eA*eG*eT*e[5mC]*eA*dA*d[5mC]*dT*d[5mC]*d[5mC]*d[5mC]*dG*dG*dG*dT*eA*eA*eA*eT*eT; antisense) [compound 547404]  64%
5. 546233 (eA*eT*eG*eG*eT*dG*dT*dT*dT*dT*d[5mC]*dT*dT*dG*dA*eG*eG*eA*eG*eT; antisense) [compound 546233]  69%
6. 546234 (e[5mC]*e[5mC]*eA*eG*eA*dT*dA*dT*dG*dG*dT*dG*dT*dT*dT*eT*e[5mC]*eT*eT*eG; antisense) [compound 546234]  69%
7. 546230 (antisense eG*eT*eG*eT*eG*d[5mC]*d[5mC]*dA*d[5mC]*dT*dT*dT*d[5mC]*dA*dG*eA*eT*eG*eT*eT) [compound 546230]  70%
8. 547393 (eT*eG*e[5mC]*eA*eG*dG*dT*dT*dA*dA*dA*dA*dG*dG*d[5mC]*eT*eA*eT*eA*eT; antisense) [compound 547393]  73%

Same assay, conditions: Table 8; HepaRG cells, electroporation with 5,000 nM antisense oligonucleotide, approx. 24 hours; PKK mRNA by RT-PCR (RTS3454), relative to untreated control cells

In order of rising “% inhibition” value:
1. 547418 (e[5mC]*eA*e[5mC]*eT*eT*dA*d[5mC]*dA*d[5mC]*dT*dT*d[5mC]*dT*d[5mC]*dT*eT*e[5mC]*e[5mC]*eT*eT; antisense) [compound 547418]  0%
2. 546258 (eA*e[5mC]*eA*eG*e[5mC]*dG*dA*dA*dT*d[5mC]*dA*dT*d[5mC]*dT*dT*eT*eG*eT*eG*e[5mC]; antisense) [compound 546258]  74%

Same assay, conditions: Table 13; human PKK mRNA in HepaRG cells; 5-10-5 gapmers

In order of falling “% inhibition” value:
1. 547583 (e[5mC]*eA*e[5mC]*eT*eG*dT*d[5mC]*d[5mC]*dT*dA*dT*dA*dT*d[5mC]*dA*e[5mC]*eT*eG*eT*e[5mC]; antisense) [compound 547583]  80%
2. 546808 (eA*eA*eA*eA*eT*dG*dA*d[5mC]*dA*d[5mC]*d[5mC]*dA*dA*dA*dA*eT*eT*e[5mC]*eG*e[5mC]; antisense) [compound 546808]  0%

Same assay, conditions: human PKK mRNA in HepaRG cells; 5-10-5 gapmers; Table 14

In order of falling “% inhibition” value:
1. 546871 (eA*e[5mC]*eT*eG*eT*dA*d[5mC]*d[5mC]*dT*dA*dT*dA*dA*d[5mC]*dT*e[5mC]*eT*eA*eA*e[5mC]; antisense) [compound 546871]  73%
2. 546881 (eA*eG*eT*eT*eT*d[5mC]*d[5mC]*dT*dA*dT*dA*dA*d[5mC]*dA*dG*eT*eA*eT*e[5mC]*eA; antisense) [compound 546881]  49%
3. 547610 (antisense eT*eG*eT*eA*eA*d[5mC]*dA*dG*dT*dA*dT*d[5mC]*dA*d[5mC]*dT*eG*eT*eA*e[5mC]*eT) [compound 547610]  45%
4. 546873 (e[5mC]*eA*eA*eT*eA*dT*d[5mC]*dA*d[5mC]*dT*dG*dT*dA*d[5mC]*d[5mC]*eT*eA*eT*eA*eA; antisense) [compound 546873]  34%
5. 546875 (eA*e[5mC]*eT*eA*eT*dA*dA*d[5mC]*dA*dA*dT*dA*dT*d[5mC]*dA*e[5mC]*eT*eG*eT*eA; antisense) [compound 546875]  33%
6. 546882 (eT*eA*eG*eT*eT*dT*d[5mC]*d[5mC]*dT*dA*dT*dA*dA*d[5mC]*dA*eG*eT*eA*eT*e[5mC]; antisense) [compound 546882]  24%

Same assay, conditions: human PKK mRNA, HepaRG cells, 5,000 nM antisense oligonucleotide, Table 18

In order of rising “% inhibition” value:
1. 548764 (antisense eT*eA*eT*e[5mC]*dA*d[5mC]*dT*dG*dT*d[5mC]*d[5mC]*dT*dA*eT*eA*eA*e[5mC]) [compound 548764]  31%
2. 548759 (antisense eA*eA*e[5mC]*eA*dG*dT*dA*dT*d[5mC]*dA*d[5mC]*dT*dG*eT*eA*e[5mC]*eT) [compound 548759]  68%

Same assay, conditions: human PKK mRNA, HepaRG cells; 5-10-5 motif oligonucleotides targeting SEQ ID NO: 1 and 10

“547665 (eT*eG*eT*eA*e[5mC]*d[5mC]*dT*dA*dT*dA*dA*d[5mC]*dT*dA*dT*eA*eA*e[5mC]*eA*eG; antisense) [compound 547665]” was tested, and the “% inhibition” value was 10%.

— patent US11840686B2, “Modulation of prekallikrein (PKK) expression” (Ionis Pharmaceuticals, Inc., priority 2013, dated 2023)
